Assay results reported in US7375079B2 (priority 1999, dated 2008).

Target: BttxB (Clostridium botulinum, UniProt P10844)
Type: biochemical

Chain of BttxB (P10844 2-441 limits assumed): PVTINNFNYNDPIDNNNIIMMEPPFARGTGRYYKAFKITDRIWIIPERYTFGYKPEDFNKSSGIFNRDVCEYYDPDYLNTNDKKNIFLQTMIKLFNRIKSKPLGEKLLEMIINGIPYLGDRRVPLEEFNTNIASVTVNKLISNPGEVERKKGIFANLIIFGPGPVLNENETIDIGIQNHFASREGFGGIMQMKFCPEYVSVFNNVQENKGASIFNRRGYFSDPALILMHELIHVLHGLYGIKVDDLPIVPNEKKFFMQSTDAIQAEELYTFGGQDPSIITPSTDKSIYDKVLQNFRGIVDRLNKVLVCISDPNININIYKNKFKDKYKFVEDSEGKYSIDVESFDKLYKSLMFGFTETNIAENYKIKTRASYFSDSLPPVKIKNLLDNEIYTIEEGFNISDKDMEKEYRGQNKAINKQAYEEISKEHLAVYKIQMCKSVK

## CC(C)C[C@H](NC(=O)CNC(=O)[C@H](C)NC(=O)[C@H](CCCNC(=N)N)NC(=O)[C@H](CO)NC(=O)[C@H](CO)NC(=O)[C@H](CCCNC(=N)N)NC(=O)[C@@H](NC(=O)[C@H](CCCCN)NC(=O)[C@H](C)NC(=O)[C@H](CCCCN)NC(=O)[C@H](C)NC(=O)[C@H](CCCNC(=N)N)NC(=O)[C@@H](NC(=O)[C@H](CCCCN)NC(=O)CNC(=O)CNC(=O)[C@H](CCC(N)=O)NC(=O)[C@H](CCCCN)NC(=O)CNC(=O)[C@H](CCCNC(=N)N)NC(=O)CNC(=O)[C@H](C)N)C(C)C)[C@@H](C)O)C(=O)N[C@@H](CCC(N)=O)C(=O)N[C@@H](Cc1ccccc1)C(=O)N1CCC[C@H]1C(=O)N[C@H](C(=O)NCC(=O)N[C@@H](CCCNC(=N)N)C(=O)N[C@H](C(=O)N[C@@H](Cc1c[nH]cn1)C(=O)N[C@@H](CCCNC(=N)N)C(=O)N[C@@H](CC(C)C)C(=O)N[C@@H](CC(C)C)C(=O)N[C@@H](CCCNC(=N)N)C(=O)N[C@@H](CCCCN)C(=O)NCC(=O)N[C@@H](CC(N)=O)C(=O)N[C@@H](Cc1ccc(O)cc1)C(=O)O)C(C)C)C(C)C [B-I]
  substrate of BttxB or not: not a substrate

## AGRGKQGGKVRAKAKTRSSRAGLQFPVGRVHRLLRK [Peptide 36]
  effectiveness as inhibitor of BttxB activity relative to B-I: about 50%

## RPKPQQFFGLM [Substance P]
  inhibition of BttxB (in words): inhibitor
